Laboratory results reported in ChEMBL document CHEMBL1201862, “PubChem BioAssay data set” (2004).
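Cells were grown in 96-well plates and exposed to each compound for 48 hours at five concentrations; endpoints were interpolated linearly between bracketing concentrations, or set to the highest concentration if not reached. Here, GI50 denotes the concentration required for 50% inhibition of growth.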 Calls of active or inactive are those of the source. Cut-off read from the data, not from the text of the source: active = GI50 up to about 1.1 µM and inactive = higher.

What was measured:
Assay in all cases: inhibition of tumour cell growth, NCI panel, 48 h
KM12 = system: KM12
Malme-3M = system: Malme-3M
ACHN = system: ACHN
UACC-257 = system: UACC-257
UACC-62 = system: UACC-62
HOP-92 = system: HOP-92
U-251 = system: U-251
SK-OV-3 = system: SK-OV-3
SF-295 = system: SF-295
OVCAR-8 = system: OVCAR-8
HCT-116 = system: HCT-116
HCC 2998 = system: HCC 2998
HT-29 = system: HT-29
SW-620 = system: SW-620
RXF 393 = system: RXF 393
OVCAR-4 = system: OVCAR-4
NCI-H23 = system: NCI-H23
SK-MEL-2 = system: SK-MEL-2

| SMILES | GI50 (KM12) | GI50 (Malme-3M) | GI50 (ACHN) | GI50 (UACC-257) | GI50 (UACC-62) | GI50 (HOP-92) | GI50 (U-251) | GI50 (SK-OV-3) | GI50 (SF-295) | GI50 (OVCAR-8) | GI50 (HCT-116) | GI50 (HCC 2998) | GI50 (HT-29) | GI50 (SW-620) | GI50 (RXF 393) | GI50 (OVCAR-4) | GI50 (NCI-H23) | GI50 (SK-MEL-2) |
| --- | --- | --- | --- | --- | --- | --- | --- | --- | --- | --- | --- | --- | --- | --- | --- | --- | --- | --- |
| CC1=C2C3OC(=O)C(C)C3C(O)C[C@@]2(C)C(=O)CC1 (some centres not stated) | > 100 µM (inactive) | > 100 µM (inactive) | > 100 µM (inactive) | > 100 µM (inactive) | > 100 µM (inactive) | > 100 µM (inactive) | > 100 µM (inactive) | > 100 µM (inactive) | > 100 µM (inactive) | > 100 µM (inactive) | > 100 µM (inactive) | > 100 µM (inactive) | > 100 µM (inactive) | > 100 µM (inactive) | > 100 µM (inactive) | > 100 µM (inactive) |  |  |
| CN(C)C(=O)/N=c1\ss/c(=N\C(=S)N(C)C)n1-c1ccccc1 | 57.5 µM (inactive) | 42.9 µM (inactive) | 23 µM (inactive) | 15.5 µM (inactive) | 14.4 µM (inactive) | > 51.4 µM (inactive) | 27 µM (inactive) | > 100 µM (inactive) | 40.2 µM (inactive) | 20.9 µM (inactive) | 13.5 µM (inactive) | > 100 µM (inactive) |  | 28.3 µM (inactive) | 38.4 µM (inactive) | 16.8 µM (inactive) | 18.7 µM (inactive) | > 57 µM (inactive) |
| CN(C)CC(/C(Cc1ccccc1)=N\NC(=O)C[n+]1ccccc1)c1ccccc1 (configuration not stated) | > 100 µM (inactive) | > 100 µM (inactive) | > 100 µM (inactive) | > 100 µM (inactive) | > 100 µM (inactive) | > 100 µM (inactive) | > 100 µM (inactive) | > 100 µM (inactive) | > 100 µM (inactive) | 35.1 µM (inactive) | > 100 µM (inactive) | > 100 µM (inactive) | > 100 µM (inactive) |  | > 100 µM (inactive) | > 100 µM (inactive) | > 100 µM (inactive) | > 100 µM (inactive) |
| CC(C)CCCC(C)[C@H]1CCC2[C@@H]3CCC4Nc5c(cnn5-c5ccccc5)C[C@]4(C)C3CC[C@@]21C (some centres not stated) | 29.6 µM (inactive) | 28.7 µM (inactive) | 29.8 µM (inactive) | 44.5 µM (inactive) | 8.05 µM (inactive) |  | 12.5 µM (inactive) | 48.5 µM (inactive) | 2.84 µM (inactive) | 61 µM (inactive) | 51.6 µM (inactive) | 15.8 µM (inactive) | 10.6 µM (inactive) | 21.5 µM (inactive) | 2.78 µM (inactive) | 25.6 µM (inactive) | 26.1 µM (inactive) | 23.4 µM (inactive) |
| N#Cc1ccccc1NC(=O)C(=O)C(C(=O)c1ccccc1-c1ccccc1)C1OC(=O)c2ccccc21 (configuration not stated) | 18.1 µM (inactive) | 10.4 µM (inactive) | 53.6 µM (inactive) | 15.2 µM (inactive) | 16.7 µM (inactive) | 20 µM (inactive) | 11.7 µM (inactive) | 41.2 µM (inactive) | 17.6 µM (inactive) | 20.3 µM (inactive) | 11 µM (inactive) | 15.5 µM (inactive) | 33.3 µM (inactive) | 29 µM (inactive) | 11.6 µM (inactive) |  | 11.8 µM (inactive) | 16 µM (inactive) |
| CCOC(=O)NC(=O)c1cn(CCCOC(=O)CCCCCCCCC(=O)OCCCn2cc(C(=O)NC(=O)OCC)c(=O)[nH]c2=O)c(=O)[nH]c1=O |  |  | 21.1 µM (inactive) | 16.9 µM (inactive) | 17.5 µM (inactive) |  | 16.7 µM (inactive) | 40.5 µM (inactive) | 22.8 µM (inactive) | 23 µM (inactive) | 24.2 µM (inactive) | 10.3 µM (inactive) | 34.8 µM (inactive) | 15 µM (inactive) | > 10 µM (inactive) | 4.41 µM (inactive) | > 10 µM (inactive) |  |
| Cc1ccc(/C=C/C(=O)c2sc(-n3nc(-c4ccccc4)cc3-c3ccccc3)nc2C)cc1 | > 100 µM (inactive) | > 100 µM (inactive) | 65.8 µM (inactive) | > 100 µM (inactive) | > 100 µM (inactive) | > 100 µM (inactive) | > 100 µM (inactive) | > 100 µM (inactive) | > 100 µM (inactive) | > 100 µM (inactive) |  | 60.8 µM (inactive) | 55 µM (inactive) | > 100 µM (inactive) | > 100 µM (inactive) |  | > 100 µM (inactive) | > 100 µM (inactive) |
| CC(C)N(C(=O)C12C3C4C5C3C1(C#N)C5C42)C(C)C (configuration not stated) | > 100 µM (inactive) | > 100 µM (inactive) | > 100 µM (inactive) | > 100 µM (inactive) | > 100 µM (inactive) | > 100 µM (inactive) | > 100 µM (inactive) | > 100 µM (inactive) | > 100 µM (inactive) | > 100 µM (inactive) | > 100 µM (inactive) | > 100 µM (inactive) | > 100 µM (inactive) | 11.6 µM (inactive) |  | > 100 µM (inactive) | > 100 µM (inactive) | > 100 µM (inactive) |
| Cc1ccc(NC(=O)c2cc3cc(/N=N/c4ccc(Br)cc4)ccc3oc2=O)cc1 | 47.6 µM (inactive) | > 100 µM (inactive) | 53 µM (inactive) | > 100 µM (inactive) |  | > 100 µM (inactive) | > 100 µM (inactive) | > 100 µM (inactive) | > 100 µM (inactive) |  | 46.9 µM (inactive) | > 100 µM (inactive) | > 100 µM (inactive) | 86.9 µM (inactive) | > 100 µM (inactive) | > 100 µM (inactive) | > 100 µM (inactive) | > 100 µM (inactive) |
| CCOP1(=O)C=C(C)C(=C(Cl)Cl)C(C)=C1 (configuration not stated) | 1.71 µM (inactive) | 17.1 µM (inactive) | 17.1 µM (inactive) | 3.54 µM (inactive) | 6.46 µM (inactive) |  | 13.9 µM (inactive) | 35.1 µM (inactive) | 6.24 µM (inactive) | 20.7 µM (inactive) | 2.51 µM (inactive) | 14.6 µM (inactive) | 4.72 µM (inactive) | 7.45 µM (inactive) | 15.6 µM (inactive) | 15.2 µM (inactive) | 15.8 µM (inactive) | 3.72 µM (inactive) |
| COc1ccc2cc3c4cc(OC)c(OC)cc4ccn3c2c1 | > 100 µM (inactive) | > 100 µM (inactive) | > 100 µM (inactive) | > 100 µM (inactive) | > 100 µM (inactive) | > 100 µM (inactive) | > 100 µM (inactive) | > 100 µM (inactive) | > 100 µM (inactive) | > 100 µM (inactive) |  | > 100 µM (inactive) | > 100 µM (inactive) | > 100 µM (inactive) | > 100 µM (inactive) | > 100 µM (inactive) | > 100 µM (inactive) | > 100 µM (inactive) |
| Cc1cc(C)c(C(=O)/C=C/c2ccccc2)c(C)c1 | 35.2 µM (inactive) | 8.02 µM (inactive) | 38.4 µM (inactive) | 33.8 µM (inactive) | 31.8 µM (inactive) | 19.1 µM (inactive) | 15.9 µM (inactive) | 64.6 µM (inactive) | 21.8 µM (inactive) | 15.5 µM (inactive) | 24.8 µM (inactive) |  | 30.3 µM (inactive) | 23 µM (inactive) | 15.8 µM (inactive) | 22.8 µM (inactive) | 26.4 µM (inactive) | 10.4 µM (inactive) |
| COc1cccc(/C=C\c2cc(OC)c(OC)c(OC)c2)c1 | 0.543 µM (active) | 0.585 µM (active) | 5.79 µM (inactive) | 0.505 µM (active) | 0.455 µM (active) | 22.6 µM (inactive) | 0.407 µM (active) | 4.38 µM (inactive) |  | 3.49 µM (inactive) | 0.548 µM (active) | 3.94 µM (inactive) | 0.423 µM (active) | 0.656 µM (active) |  | 14.4 µM (inactive) | 1.32 µM (inactive) |  |
| CC(=O)Nc1ccc(-c2nnc(SCC(=O)Nc3cccc(C)c3)o2)cc1 | 10.8 µM (inactive) | 14.1 µM (inactive) | 10.7 µM (inactive) | 12.3 µM (inactive) | 8.26 µM (inactive) | 13 µM (inactive) | 13.5 µM (inactive) | 25.8 µM (inactive) | 10.8 µM (inactive) | 16.3 µM (inactive) | 11.8 µM (inactive) |  | 12.2 µM (inactive) | 12.8 µM (inactive) | 12.8 µM (inactive) | 16 µM (inactive) | 7.55 µM (inactive) | 12.5 µM (inactive) |
| O=C(NCCOC(=O)CCCCCCCCC(=O)OCCNC(=O)NC(=O)c1cn(Cc2ccccc2)c(=O)[nH]c1=O)NC(=O)c1cn(Cc2ccccc2)c(=O)[nH]c1=O | > 100 µM (inactive) |  | > 100 µM (inactive) | > 100 µM (inactive) | > 100 µM (inactive) |  | > 100 µM (inactive) | > 100 µM (inactive) | > 100 µM (inactive) | > 100 µM (inactive) | > 100 µM (inactive) | > 100 µM (inactive) | > 100 µM (inactive) | > 100 µM (inactive) |  | > 100 µM (inactive) | > 100 µM (inactive) | > 100 µM (inactive) |
| Cc1c(C)c2ccc3oc4ccccc4c3c2oc1=O | > 100 µM (inactive) | > 100 µM (inactive) | > 100 µM (inactive) | > 100 µM (inactive) | > 100 µM (inactive) | 52.6 µM (inactive) | > 100 µM (inactive) | > 100 µM (inactive) | 67.3 µM (inactive) | > 100 µM (inactive) | 96.4 µM (inactive) | > 100 µM (inactive) | > 100 µM (inactive) | > 100 µM (inactive) | > 100 µM (inactive) | > 100 µM (inactive) | > 100 µM (inactive) |  |
